From ChEMBL document CHEMBL3044803, “Impact of tricyclazole and azoxystrobin on growth, sporulation and secondary infection of the rice blast fungus, Magnaporthe oryzae” (Pest Manag Sci, 2013) come the findings set out here.

The subject of test [1] is Pyricularia oryzae. Briefly: microbe, parasite or virus in culture. The settings on record: 168 h, read-out: INH.
Test [2] deals with Pyricularia oryzae. Briefly: microbe, parasite or virus in culture. The test is classed as functional, organism-based. The note with it: 168 h.
The subject of test [3] is Pyricularia oryzae. Briefly: microbe, parasite or virus in culture. The test is classed as functional. The note with it: for EC50: Pyricularia oryzae, 168 h, read-out: ED50 (the source's name).
In test [4] the test system is Pyricularia oryzae. Briefly: Fungicidal activity against Magnaporthe oryzae assessed as germination of conidia at 1 mg/l at 26 degC measured after 7 days. The test is classed as functional.
Test [5] relates to Pyricularia oryzae. Briefly: microbe, parasite or virus in culture. The test is classed as functional. The note with it: 168 h.
For test [6], the system named is Pyricularia oryzae. Briefly: Fungicidal activity against Magnaporthe oryzae assessed as reduction of appressorium diameter of conidia at 0.01 to 1 mg/l at 26 degC measured after 7 days. The test is classed as functional, organism-based.
The next test concerns Pyricularia grisea. Briefly: Fungicidal activity against Magnaporthe grisea. The test is classed as functional. The settings on record: read-out: ED50 (the source's name).
For test [7], the system named is Pyricularia oryzae. Briefly: Fungicidal activity against Magnaporthe oryzae from perennial ryegrass. The test is classed as functional. The note with it: read-out: ED50 (the source's name).
For test [8], the system named is Pyricularia oryzae. Briefly: Fungicidal activity against Magnaporthe oryzae assessed as germination of conidia at 0.01 mg/l at 26 degC measured after 7 days. The test is classed as functional, organism-based.

Converted amounts (≈) assume the structure as drawn. The source made the active and inactive calls. The calls are words filed in the database; no cut-off is given here.

As to `Cc1cccc2sc3nncn3c12` [TRICYCLAZOLE], the inhibition at 5 µg/mL in the test with Pyricularia oryzae [1] stood at 95%. The same molecule yielded an EC50 in the test with Pyricularia oryzae [2] of 0.072 µg/mL (≈ 0.38 µM). Besides, in the test with Pyricularia oryzae [3], the ED90 worked out at 215.64 µg/mL (≈ 1140 µM) and the EC50 was 1 µg/mL (≈ 5.31 µM).
Consider `CO/C=C(/C(=O)OC)c1ccccc1Oc1cc(Oc2ccccc2C#N)ncn1` [AZOXYSTROBIN], for which, in the test with Pyricularia oryzae [4], the Activity amounted to 67.1%. The molecule further yielded an inhibition at 1 µg/mL in the test on Pyricularia oryzae [5] of 95%. Also, the outcome with Pyricularia oryzae [6] was Active. Also, the EC50 in the test with Pyricularia oryzae [2] was found to be 0.017 µg/mL (≈ 0.0421 µM); with Pyricularia grisea it was 1.8 µg/mL (≈ 4.46 µM); with Pyricularia oryzae [3] it was 0.044 µg/mL (≈ 0.109 µM); in the test with Pyricularia oryzae [7] it was 0.013 µg/mL (≈ 0.0322 µM). The molecule further returned an ED90 with Pyricularia oryzae [3] of 69.58 µg/mL (≈ 172 µM). The result in the test on Pyricularia oryzae [8] was inactive.
